This passage reports IC50 and Ratio IC50 results from ChEMBL document CHEMBL2331378, “Synthesis and discovery of novel piperidone-grafted mono- and bis-spirooxindole-hexahydropyrrolizines as potent cholinesterase inhibitors” (Bioorg Med Chem, 2013).

One assay has as its target Cholinesterase (Equus caballus, UniProt P81908). Nature of the assay: Inhibition of equine serum BuChE using S-butyrylthiocholine chloride substrate by Ellman's method based spectrophotometry.
Assay [1] can be described thus: Selectivity index, ratio of IC50 for AChE (unknown origin) to IC50 for equine serum BuChE.
The target in a further assay is Acetylcholinesterase (Homo sapiens, UniProt P22303). Nature of the assay: Inhibition of AChE (unknown origin) using acetylthiocholine iodide substrate by Ellman's method based spectrophotometry. On the technique in general: In Ellman's method for cholinesterases, released thiocholine reacts with DTNB.
Chain of Acetylcholinesterase (P22303 whole entry): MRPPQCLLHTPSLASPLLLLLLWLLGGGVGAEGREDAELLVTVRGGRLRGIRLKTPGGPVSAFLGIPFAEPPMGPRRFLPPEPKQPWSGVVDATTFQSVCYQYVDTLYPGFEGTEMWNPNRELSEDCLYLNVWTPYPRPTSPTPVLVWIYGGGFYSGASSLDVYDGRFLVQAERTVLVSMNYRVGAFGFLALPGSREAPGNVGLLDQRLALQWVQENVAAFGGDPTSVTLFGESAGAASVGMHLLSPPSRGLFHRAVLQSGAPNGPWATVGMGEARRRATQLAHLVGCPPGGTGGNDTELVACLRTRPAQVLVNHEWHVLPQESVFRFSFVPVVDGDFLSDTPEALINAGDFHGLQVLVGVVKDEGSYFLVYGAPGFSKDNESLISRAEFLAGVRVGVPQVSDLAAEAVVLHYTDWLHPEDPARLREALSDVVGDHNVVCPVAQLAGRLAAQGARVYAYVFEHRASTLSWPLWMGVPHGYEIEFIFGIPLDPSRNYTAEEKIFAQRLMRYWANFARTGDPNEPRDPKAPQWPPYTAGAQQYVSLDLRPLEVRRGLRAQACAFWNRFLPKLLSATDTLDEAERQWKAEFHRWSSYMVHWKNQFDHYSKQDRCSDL
The nature of assay [2]: Selectivity index, ratio of IC50 for equine serum BuChE to IC50 for AChE (unknown origin).

Each structure is given as a SMILES string.

Chain of Cholinesterase (P81908 whole entry): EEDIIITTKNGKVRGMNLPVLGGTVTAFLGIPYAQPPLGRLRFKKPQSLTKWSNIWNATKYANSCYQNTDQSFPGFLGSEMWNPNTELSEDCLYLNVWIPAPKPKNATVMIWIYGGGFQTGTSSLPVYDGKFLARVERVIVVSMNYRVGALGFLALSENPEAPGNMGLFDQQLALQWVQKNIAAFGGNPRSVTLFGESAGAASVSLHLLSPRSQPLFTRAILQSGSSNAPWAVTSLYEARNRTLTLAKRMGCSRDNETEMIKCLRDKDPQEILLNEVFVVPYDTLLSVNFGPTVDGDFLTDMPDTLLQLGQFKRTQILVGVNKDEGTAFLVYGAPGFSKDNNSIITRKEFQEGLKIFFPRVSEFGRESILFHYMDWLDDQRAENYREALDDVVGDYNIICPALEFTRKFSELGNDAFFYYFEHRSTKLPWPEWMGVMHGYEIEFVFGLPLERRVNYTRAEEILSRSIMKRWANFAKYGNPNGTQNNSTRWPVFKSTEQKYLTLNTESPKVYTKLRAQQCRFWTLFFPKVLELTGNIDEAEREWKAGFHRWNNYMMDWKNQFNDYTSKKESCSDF

A word on the IC50: it is the concentration needed to halve the response being measured. Low values mean inhibition by little substance, high ones a need for much substance. Take `C=CC(=O)N1C/C(=C\c2ccc(F)cc2)C(=O)/C(=C/c2ccc(F)cc2)C1`: the IC50 against Cholinesterase stood at 30.6 µM; against Acetylcholinesterase, 15.1 µM. The Ratio IC50 in assay [1] was determined as 0.49; in assay [2], 2.02.

Turning to `O=C1/C(=C/c2ccc(F)cc2)CN(C(=O)C[C@H]2C[C@H]3CCCN3[C@]23C(=O)Nc2ccccc23)C/C1=C\c1ccc(F)cc1` (racemic), the 50% inhibitory concentration (IC50) was determined as 3.99 µM against Cholinesterase and 19.8 µM at Acetylcholinesterase. Further, the values for the Ratio IC50 in assay [1] and in assay [2] were 4.97 and 0.2, respectively.

For the molecule `O=C(C[C@H]1C[C@H]2CCCN2[C@]12C(=O)Nc1ccccc12)N1C/C(=C\c2ccc(Cl)cc2)C(=O)[C@]2(C[C@H]3CCCN3[C@@]23C(=O)Nc2ccccc23)C1` (racemic), the IC50 was 10.9 µM on Cholinesterase and 7.92 µM against Acetylcholinesterase. For the same molecule, the Ratio IC50 in assay [1] was 0.73; in assay [2], 1.38.

In the case of `O=C1/C(=C/c2ccccc2)CN(C(=O)C[C@H]2C[C@H]3CCCN3[C@]23C(=O)Nc2ccccc23)C/C1=C\c1ccccc1` (racemic), the values for the IC50 at Cholinesterase and on Acetylcholinesterase were 16.3 µM and 17.5 µM, respectively. The Ratio IC50 in assay [1] is 1.07; in assay [2] it was 0.93.

For the molecule `C=CC(=O)N1C/C(=C\c2cccc([N+](=O)[O-])c2)C(=O)/C(=C/c2cccc([N+](=O)[O-])c2)C1`, the IC50 at Cholinesterase was found to be 51.2 µM; on Acetylcholinesterase, 9.76 µM. For the same molecule, the Ratio IC50 in assay [1] stood at 0.19; in assay [2], 5.24.

For `O=C(C[C@H]1C[C@H]2CCCN2[C@]12C(=O)Nc1ccccc12)N1C/C(=C\c2ccccc2)C(=O)[C@]2(C[C@H]3CCCN3[C@@]23C(=O)Nc2ccccc23)C1` (racemic), the half-maximal inhibitory concentration (IC50) at Cholinesterase worked out at 18.2 µM; against Acetylcholinesterase, 19.7 µM. Besides, the Ratio IC50 in assay [1] was 1.08; in assay [2] it was 0.93.

With `C=CC(=O)N1C/C(=C\c2cccc3ccccc23)C(=O)/C(=C/c2cccc3ccccc23)C1`, the values for the IC50 against Cholinesterase and against Acetylcholinesterase were 23.1 µM and 13.8 µM, respectively. Also, the values for the Ratio IC50 in assay [1] and in assay [2] were 0.6 and 1.67, respectively.

For the molecule `Cc1ccccc1/C=C1\CN(C(=O)C[C@H]2C[C@H]3CCCN3[C@]23C(=O)Nc2ccccc23)C[C@@]2(C[C@H]3CCCN3[C@@]23C(=O)Nc2ccccc23)C1=O` (racemic), the IC50 worked out at 13 µM against Cholinesterase and 27.5 µM against Acetylcholinesterase. Moreover, the values for the Ratio IC50 in assay [1] and in assay [2] were 2.12 and 0.47, respectively.

For the molecule `C=CC(=O)N1C/C(=C\c2ccccc2C)C(=O)/C(=C/c2ccccc2C)C1`, the IC50 on Cholinesterase is 30 µM; against Acetylcholinesterase, 17.4 µM. For the same molecule, the Ratio IC50 turned out to be 0.58 in assay [1] and 1.73 in assay [2].

With `O=C(C[C@H]1C[C@H]2CCCN2[C@]12C(=O)Nc1ccccc12)N1C/C(=C\c2ccc(F)cc2)C(=O)[C@]2(C[C@H]3CCCN3[C@@]23C(=O)Nc2ccccc23)C1` (racemic), the half-inhibitory concentration (IC50) was found to be 8.29 µM against Cholinesterase and 23.7 µM against Acetylcholinesterase. Besides, the Ratio IC50 was determined as 2.86 in assay [1] and 0.35 in assay [2].

On to `O=C(C[C@H]1C[C@H]2CCCN2[C@]12C(=O)Nc1ccccc12)N1C/C(=C\c2cccc3ccccc23)C(=O)[C@]2(C[C@H]3CCCN3[C@@]23C(=O)Nc2ccccc23)C1` (racemic), for which the half-inhibitory concentration (IC50) against Cholinesterase was 6.42 µM; on Acetylcholinesterase it was 20.6 µM. Also, the results for the Ratio IC50 in assay [1] and in assay [2] were 3.21 and 0.31, respectively.

Turning to `O=C1/C(=C/c2ccccc2F)CN(C(=O)C[C@H]2C[C@H]3CCCN3[C@]23C(=O)Nc2ccccc23)C/C1=C\c1ccccc1F` (racemic), the concentration for half-maximal inhibition (IC50) against Cholinesterase came to 3.5 µM; against Acetylcholinesterase, 34.4 µM. Further, the Ratio IC50 in assay [1] came out at 9.82; in assay [2], 0.1.

As to `O=C(C[C@H]1C[C@H]2CCCN2[C@]12C(=O)Nc1ccccc12)N1C/C(=C\c2ccccc2F)C(=O)[C@]2(C[C@H]3CCCN3[C@@]23C(=O)Nc2ccccc23)C1` (racemic), the values for the IC50 against Cholinesterase and at Acetylcholinesterase were 9.09 µM and 24.6 µM, respectively. Moreover, the results for the Ratio IC50 in assay [1] and in assay [2] were 2.7 and 0.37, respectively.

Regarding `COc1ccccc1/C=C1\CN(C(=O)C[C@H]2C[C@H]3CCCN3[C@]23C(=O)Nc2ccccc23)C/C(=C\c2ccccc2OC)C1=O` (racemic), the figures for the IC50 on Cholinesterase and on Acetylcholinesterase were 9.41 µM and 15.9 µM, respectively. The Ratio IC50 in assay [1] worked out at 1.69; in assay [2], 0.59.

For the molecule `C=CC(=O)N1C/C(=C\c2ccccc2OC)C(=O)/C(=C/c2ccccc2OC)C1`, the concentration for half-maximal inhibition (IC50) turned out to be 28.9 µM on Cholinesterase and 8.72 µM at Acetylcholinesterase. For the same molecule, the Ratio IC50 in assay [1] stood at 0.3; in assay [2], 3.32.

In the case of `O=C1/C(=C/c2ccccc2Cl)CN(C(=O)C[C@H]2C[C@H]3CCCN3[C@]23C(=O)Nc2ccccc23)C/C1=C\c1ccccc1Cl` (racemic), the values for the IC50 against Cholinesterase and against Acetylcholinesterase were 19.7 µM and 11.9 µM, respectively. Moreover, the Ratio IC50 in assay [1] amounted to 0.6; in assay [2], 1.66.

As for `C=CC(=O)N1C/C(=C\c2ccccc2)C(=O)/C(=C/c2ccccc2)C1`, the 50% inhibitory concentration (IC50) at Cholinesterase amounted to 22.1 µM; on Acetylcholinesterase, 17.7 µM. The Ratio IC50 in assay [1] amounted to 0.8; in assay [2], 1.25.

On to `O=C(C[C@H]1C[C@H]2CCCN2[C@]12C(=O)Nc1ccccc12)N1C/C(=C\c2cccc([N+](=O)[O-])c2)C(=O)[C@]2(C[C@H]3CCCN3[C@@]23C(=O)Nc2ccccc23)C1` (racemic), for which the IC50 at Cholinesterase was 24.3 µM; against Acetylcholinesterase, 26.6 µM. For the same molecule, the results for the Ratio IC50 in assay [1] and in assay [2] were 1.1 and 0.91, respectively.

As for `C=CC(=O)N1C/C(=C\c2ccc(C)cc2)C(=O)/C(=C/c2ccc(C)cc2)C1`, the results for the IC50 against Cholinesterase and against Acetylcholinesterase were 35.1 µM and 18.1 µM, respectively. Also, the figures for the Ratio IC50 in assay [1] and in assay [2] were 0.51 and 1.94, respectively.

With `Cc1ccccc1/C=C1\CN(C(=O)C[C@H]2C[C@H]3CCCN3[C@]23C(=O)Nc2ccccc23)C/C(=C\c2ccccc2C)C1=O` (racemic), the IC50 on Cholinesterase was determined as 17.8 µM; against Acetylcholinesterase, 12.5 µM. Moreover, the Ratio IC50 in assay [1] was found to be 0.7; in assay [2], 1.43.

On to `C=CC(=O)N1C/C(=C\c2ccccc2Cl)C(=O)/C(=C/c2ccccc2Cl)C1`, for which the IC50 came to 36.6 µM against Cholinesterase and 16.3 µM against Acetylcholinesterase. Further, the Ratio IC50 was 0.45 in assay [1] and 2.24 in assay [2].

With `O=C1/C(=C/c2cccc([N+](=O)[O-])c2)CN(C(=O)C[C@H]2C[C@H]3CCCN3[C@]23C(=O)Nc2ccccc23)C/C1=C\c1cccc([N+](=O)[O-])c1` (racemic), the IC50 is 18.1 µM on Cholinesterase and 5.99 µM against Acetylcholinesterase. Also, the Ratio IC50 in assay [1] came to 0.33; in assay [2], 3.03.

As for `C=CC(=O)N1C/C(=C\c2ccccc2F)C(=O)/C(=C/c2ccccc2F)C1`, the IC50 was 54 µM against Cholinesterase and 11.8 µM against Acetylcholinesterase. Also, the values for the Ratio IC50 in assay [1] and in assay [2] were 0.22 and 4.58, respectively.

`Cc1ccc(/C=C2\CN(C(=O)C[C@H]3C[C@H]4CCCN4[C@]34C(=O)Nc3ccccc34)C[C@@]3(C[C@H]4CCCN4[C@@]34C(=O)Nc3ccccc34)C2=O)cc1` (racemic): the IC50 on Cholinesterase was found to be 17.9 µM; on Acetylcholinesterase it was 19.6 µM. For the same molecule, the Ratio IC50 in assay [1] is 1.1; in assay [2] it was 0.91.

For `O=C(C[C@H]1C[C@H]2CCCN2[C@]12C(=O)Nc1ccccc12)N1C/C(=C\c2ccccc2Cl)C(=O)[C@]2(C[C@H]3CCCN3[C@@]23C(=O)Nc2ccccc23)C1` (racemic), the values for the IC50 against Cholinesterase and against Acetylcholinesterase were 11.7 µM and 13.6 µM, respectively. Besides, the values for the Ratio IC50 in assay [1] and in assay [2] were 1.16 and 0.86, respectively.

On to `COc1ccccc1/C=C1\CN(C(=O)C[C@H]2C[C@H]3CCCN3[C@]23C(=O)Nc2ccccc23)C[C@@]2(C[C@H]3CCCN3[C@@]23C(=O)Nc2ccccc23)C1=O` (racemic), for which the IC50 against Cholinesterase worked out at 19.2 µM; on Acetylcholinesterase, 11.4 µM. The Ratio IC50 in assay [1] was determined as 0.59; in assay [2], 1.68.

As for `Cc1ccc(/C=C2\CN(C(=O)C[C@H]3C[C@H]4CCCN4[C@]34C(=O)Nc3ccccc34)C/C(=C\c3ccc(C)cc3)C2=O)cc1` (racemic), the IC50 was determined as 25.2 µM at Cholinesterase and 20.1 µM on Acetylcholinesterase. Also, the results for the Ratio IC50 in assay [1] and in assay [2] were 0.8 and 1.26, respectively.

As to `O=C1/C(=C/c2ccc(Cl)cc2Cl)CN(C(=O)C[C@H]2C[C@H]3CCCN3[C@]23C(=O)Nc2ccccc23)C/C1=C\c1ccc(Cl)cc1Cl` (racemic), the IC50 against Cholinesterase turned out to be 21.2 µM; against Acetylcholinesterase, 4.11 µM. Further, the Ratio IC50 in assay [1] came to 0.19; in assay [2] it was 5.15.

Regarding `C=CC(=O)N1C/C(=C\c2ccc(Cl)cc2Cl)C(=O)/C(=C/c2ccc(Cl)cc2Cl)C1`, the values for the IC50 against Cholinesterase and against Acetylcholinesterase were 29.4 µM and 15.8 µM, respectively. Also, the Ratio IC50 in assay [1] is 0.54; in assay [2], 1.86.

With `C=CC(=O)N1C/C(=C\c2ccc(Cl)cc2)C(=O)/C(=C/c2ccc(Cl)cc2)C1`, the concentration for half-maximal inhibition (IC50) on Cholinesterase stood at 38.2 µM; against Acetylcholinesterase, 22 µM. The Ratio IC50 in assay [1] was determined as 0.58; in assay [2], 1.73.

As for `O=C1/C(=C/c2ccc(Cl)cc2)CN(C(=O)C[C@H]2C[C@H]3CCCN3[C@]23C(=O)Nc2ccccc23)C/C1=C\c1ccc(Cl)cc1` (racemic), the 50% inhibitory concentration (IC50) was 32.3 µM at Cholinesterase and 3.36 µM against Acetylcholinesterase. Further, the Ratio IC50 was 0.1 in assay [1] and 9.6 in assay [2].

With `O=C(C[C@H]1C[C@H]2CCCN2[C@]12C(=O)Nc1ccccc12)N1C/C(=C\c2ccc(Cl)cc2Cl)C(=O)[C@]2(C[C@H]3CCCN3[C@@]23C(=O)Nc2ccccc23)C1` (racemic), the values for the IC50 against Cholinesterase and at Acetylcholinesterase were 9.45 µM and 6.96 µM, respectively. Besides, the Ratio IC50 in assay [1] worked out at 0.74; in assay [2] it was 1.36.

For `O=C1/C(=C/c2cccc3ccccc23)CN(C(=O)C[C@H]2C[C@H]3CCCN3[C@]23C(=O)Nc2ccccc23)C/C1=C\c1cccc2ccccc12` (racemic), the results for the IC50 against Cholinesterase and on Acetylcholinesterase were 11.8 µM and 6.76 µM, respectively. Besides, the Ratio IC50 in assay [1] worked out at 0.57; in assay [2] it was 1.74.
